The values below come from patent US20230201212A1, “INHIBITORS OF EZH2 AND METHODS OF USE THEREOF” (Epizyme, Inc., priority 2017, published 2023).

Series [1] relates to advanced solid tumors or B-cell lymphomas. In words: phase 1 part of phase 1/2 study (NCT01897571), tazemetostat monotherapy.
Series [2] has as its system relapsed or refractory diffuse large B-cell lymphoma (DLBCL) or follicular lymphoma (FL). In words: phase 2 study (NCT01897571): objective response to tazemetostat by NGS molecular profile of archive tumor. Format: in vivo, human. On the procedure:
[…]. […] The primary study endpoint is objective overall response rate.
During screening, archive tumor- and/or plasma-derived circulating tumor DNA (ctDNA) samples were obtained. Archive tumor was analyzed prospectively for EZH2-activating mutations Y646F, Y646N, Y646X (Y646H, Y646C, and Y646S), A682G, and A692V using a cobas® EZH2 Mutation Test (Roche Molecular Systems, Inc., Pleasanton, CA, USA). Next generation sequencing (NGS) was performed retrospectively on DNA derived from archive tumor and plasma samples to identify somatic mutations, amplifications, and translocations using an NHL-specific 62-gene panel on the Illumina HiSeq 2500 platform (Illumina, Inc., San Diego, CA, USA) with 100 bp paired-end reads (Table 1).
ctDNA was approximately 20,000 X for mutations and 3700 X for structural alterations. Sequencing data were aligned to the human reference sequence (hg19) and analyzed using validated cancer genome analysis algorithms (Personal Genome Diagnostics, Baltimore, MD, USA). EZH2 mutation detection rates in archive tumor were ~12% in DLBCL and 19% in FL in the total phase 2 cohort (Table 2), consistent with previous reports.

Series [3] can be described thus: oral bioavailability. To be noted: in vivo.
[4] abbreviates: Genetic Profile 1, patients matching profile (19).
The mark [5] stands for this setting: Genetic Profile 1, patients not matching profile (73).
[6] abbreviates: Genetic Profile 2, patients matching profile (26).
Setting [7] is: Genetic Profile 2, patients not matching profile (66).

As for `CCN(c1cc(-c2ccc(CN3CCOCC3)cc2)cc(C(=O)NCc2c(C)cc(C)[nH]c2=O)c1C)C1CCOCC1` [tazemetostat], the “safety profile as monotherapy” value in series [1] (monotherapy, patients) was “acceptable”. For the same compound, in series [1] (phase 1, adult patients, tumors exhibiting mutated or wild-type EZH2), the objective responses entry is given as “objective responses to tazemetostat were observed”. The “Nonresponder (SD/PF/UK), %” value in series [2] (setting [4]) is 42.1%; in series [2] (setting [5]) it was 80.8%. In addition, the “Responder (CR/PR), %” value turned out to be 57.9% in series [2] (setting [4]), 19.2% in series [2] (setting [5]), 57.7% in series [2] (setting [6]) and 15.2% in series [2] (setting [7]). The results for the “Nonresponder (SD/PD/UK), %” value in series [2] (setting [6]) and in series [2] (setting [7]) were 42.3% and 84.8%, respectively. Besides, the Response preference entry is on record as “Mutant” in series [2] (gene EZH2, P-value 0.0253); “Mutant” in series [2] (gene MYD88 L273P, P-value 0.0841); “Mutant” in series [2] (gene STAT6, P-value 0.0753). For the same compound, the “objective overall response rate” value in series [2] (patients matching multigene predictor: wild-type MYC and/or HIST1H1E with mutated STAT6 and/or MYD88 in archive tumor (11/19)) is ~ 58%; in series [2] (patients not matching the multigene predictor (14/73)), about 19%. Also, the oral bioavailability entry in series [3] is “orally bioavailable”.
